The source of these data is patent publication US20230002361A1, “2H-INDAZOLE DERIVATIVES AND THEIR USE IN THE TREATMENT OF DISEASE” (BIOGEN MA INC., priority 2019, published 2023).

Series [1] has as its target T1, IRAK4 (Homo sapiens, UniProt Q9NWZ3).
T1 construct: with 0.1 nM IRAK4, 1.6 μM of biotinylated peptide substrate and 10 μM ATP
T1 sequence (Q9NWZ3 1-460): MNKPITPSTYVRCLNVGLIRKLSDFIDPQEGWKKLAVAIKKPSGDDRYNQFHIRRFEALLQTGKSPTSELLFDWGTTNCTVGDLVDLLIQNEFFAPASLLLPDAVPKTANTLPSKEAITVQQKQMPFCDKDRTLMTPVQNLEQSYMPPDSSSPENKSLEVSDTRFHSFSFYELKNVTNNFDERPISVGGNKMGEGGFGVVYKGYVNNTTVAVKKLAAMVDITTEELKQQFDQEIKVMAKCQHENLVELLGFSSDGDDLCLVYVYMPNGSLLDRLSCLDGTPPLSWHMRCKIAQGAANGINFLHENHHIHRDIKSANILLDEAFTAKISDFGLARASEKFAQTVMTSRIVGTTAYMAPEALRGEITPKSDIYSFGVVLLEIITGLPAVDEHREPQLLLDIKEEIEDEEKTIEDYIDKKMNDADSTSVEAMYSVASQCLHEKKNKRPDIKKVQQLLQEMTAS
The series can be described thus: IRAK4 MSD Biochemical Assay (10 μM ATP, 2 h). Particulars: 0.1 nM IRAK4, 2 h, room temperature. As for the experimental part: The 2-hour 10 μM ATP Biochemical Assay employs a MesoScale Detection (MSD) format. The kinase reaction is based on the IRAK4 phosphorylation of a biotin labeled peptide (IRAK1 activation loop sequence 360-389).
The kinase reaction in 30 μl is carried out in wells of a 384 well polypropylene assay plate, with 0.1 nM IRAK4, 1.6 μM of biotinylated peptide substrate and 10 μM ATP in 50 mM Hepes, pH 7.5, 60 mM NaCl, 5 mM MgCl2, 0.25 mM MnCl2, 2 mM DTT, 0.01% BSA, 0.01% BSA, and 1% DMSO (from compound DMSO stocks), for 2 hour at room temperature. The activity is quenched with 11 μl of 70 mM EDTA, pH 8.
To detect the phosphorylated biotinylated peptide substrate, 30 μl of the quenched reaction mixture is added to equivalent wells of a 384 well streptavidin coated MesoScale plate (Meso Scale Discovery #L21SA-1). After a 1 hour incubation of the plate for 1 hour at room temperature with gentle mixing, the plate wells are washed 3 times with 50 mM Tris, pH 7.5, 150 mM NaCl, 0.02% Tween-20.
A 25 μl volume of 1:500 anti-P-Threonine Rabbit polyclonal Antibody plus 1:500 Goat-anti-Rabbit Sulfo Tag Antibody (Meso Scale Discovery R32AB-1) in 50 mM Tris, pH 7.5, 150 mM NaCl, 0.02% Tween-20 plus 2% BSA is then added to each well. After a 1-hour incubation of the plate for 1 hour at room temperature with gentle mixing, the plate wells are washed, 3 times with 50 mM Tris, pH 7.5, 150 mM NaCl, 0.02% Tween-20. A 40 μl volume of 2×MSD Read Buffer (Meso Scale Discovery R92TC-1) is added to each well, and the plate is read immediately in an MSD Plate Reader (Meso Scale Discovery).

Another series has as its target T2, MDR1 (P-gp) (Homo sapiens, UniProt P08183).
T2 construct: host or cells: MDCK cells
Put plainly: MDR1-MDCK assay (efflux ratio). Format: in vitro ADME. The settings on record: human, MDCK-MDR1, 1 μM compound, 120 minutes incubation; read-out: MDR1-MDCK Efflux Ratio; (B-A/A-B). An outline of the steps:
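Human MDR1-transfected MDCK monolayers, cultured 7 days on transwell inserts with TEER checked, were dosed with compound at 1 μM in HBSS-HEPES. Transport was measured in both A-B and B-A directions. Efflux ratio came from the directional permeabilities, with mass balance also calculated.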

The target in series [2] is T1, IRAK4. The series can be described thus: IRAK4 MSD Biochemical Assay (1 mM ATP, 2 h). Particulars: room temperature, read-out: IRAK4 MSD Biochemical Assay (1 mM ATP, 2 h) IC50. An outline of the steps: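 Run with 1 mM ATP and […] for 2 h, then quenched with EDTA, pH 8. The phosphorylated biotinylated peptide was captured on streptavidin plates and detected with anti-phospho-threonine antibody plus Sulfo-Tag secondary by MSD electrochemiluminescence.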

The structures appear in SMILES notation.

T2 sequence (P08183 whole entry): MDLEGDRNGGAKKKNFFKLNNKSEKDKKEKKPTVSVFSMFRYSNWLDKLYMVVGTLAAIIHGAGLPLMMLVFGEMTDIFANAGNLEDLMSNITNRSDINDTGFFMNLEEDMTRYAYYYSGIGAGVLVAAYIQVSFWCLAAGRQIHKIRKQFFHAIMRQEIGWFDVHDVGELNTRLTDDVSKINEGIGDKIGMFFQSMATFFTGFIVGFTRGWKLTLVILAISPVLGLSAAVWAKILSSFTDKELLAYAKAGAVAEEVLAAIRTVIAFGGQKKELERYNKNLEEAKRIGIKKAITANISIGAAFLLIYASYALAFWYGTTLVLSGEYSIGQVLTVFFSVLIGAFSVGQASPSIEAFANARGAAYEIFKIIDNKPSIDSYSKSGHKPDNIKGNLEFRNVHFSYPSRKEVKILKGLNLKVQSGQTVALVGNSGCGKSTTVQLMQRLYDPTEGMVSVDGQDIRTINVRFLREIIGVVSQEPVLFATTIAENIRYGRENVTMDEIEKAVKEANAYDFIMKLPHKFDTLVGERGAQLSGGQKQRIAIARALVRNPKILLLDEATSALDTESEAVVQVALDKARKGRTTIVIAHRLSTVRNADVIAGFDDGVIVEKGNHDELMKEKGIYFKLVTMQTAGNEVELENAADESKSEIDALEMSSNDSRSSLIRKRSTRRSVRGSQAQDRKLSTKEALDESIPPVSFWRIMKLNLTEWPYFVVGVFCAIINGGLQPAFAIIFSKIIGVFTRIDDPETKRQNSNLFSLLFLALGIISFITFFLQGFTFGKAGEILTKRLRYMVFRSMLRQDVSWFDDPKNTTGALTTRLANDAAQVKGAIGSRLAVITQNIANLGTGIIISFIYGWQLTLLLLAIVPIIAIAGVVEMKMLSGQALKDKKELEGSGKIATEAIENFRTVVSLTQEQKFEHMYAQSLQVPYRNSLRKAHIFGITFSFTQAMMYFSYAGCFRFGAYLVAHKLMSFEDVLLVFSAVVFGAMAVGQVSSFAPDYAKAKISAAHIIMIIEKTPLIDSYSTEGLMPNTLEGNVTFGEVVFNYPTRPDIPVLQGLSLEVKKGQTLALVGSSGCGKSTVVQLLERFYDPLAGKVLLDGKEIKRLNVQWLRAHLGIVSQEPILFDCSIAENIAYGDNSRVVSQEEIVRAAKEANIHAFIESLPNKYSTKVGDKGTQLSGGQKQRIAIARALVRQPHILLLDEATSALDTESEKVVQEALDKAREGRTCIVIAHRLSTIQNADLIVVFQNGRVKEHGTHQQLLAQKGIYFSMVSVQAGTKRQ

Broadly, the IC50 is the concentration that gives 50% inhibition. Regarding `COc1cc2nn(CC3CCOC3)cc2cc1C(=O)Nc1cccc(C(F)F)n1` (stereo not drawn) [Example 11, N-(6-(difluoromethyl)pyridin-2-yl)-6-methoxy-2-((tetrahydrofuran-3-yl)methyl)-2H-indazole-5-carboxamide], the IC50 on IRAK4 [1] came out at 2 nM; at IRAK4 [2], 6.8 nM. Further, the efflux ratio at 120 min, 1 μM on MDR1 (P-gp) came out at 1.1.

As to `COc1cc2nn(CCC(C)(C)OC)cc2cc1C(=O)Nc1cccc(C(F)F)n1` [Example 12, N-(6-(difluoromethyl)pyridin-2-yl)-6-methoxy-2-(3-methoxy-3-methylbutyl)-2H-indazole-5-carboxamide], the figures for the IC50 at IRAK4 [1] and on IRAK4 [2] were 2 nM and 5.5 nM, respectively. The efflux ratio at 120 min, 1 μM at MDR1 (P-gp) came to 1.4.
